Results reported in the NIST ThermoML archive (doi:10.1016/j.jct.2014.06.023).
Several values for one entry are separate records, joined by “and”; a condition that tells them apart may be missing. Equal entries are not always repeated. Numbers after ± are expanded uncertainties.

Conditions: Buoyancy - hydrostatic balance with magnetic suspension - one sinker

CC [ethane]
mass density (225.41 K, 310.68 kPa, Gas): 5.2843 ± 0.012 kg/m3
mass density (225.41 K, 1642.2 kPa, Liquid): 489.85 ± 0.11 kg/m3
mass density (225.42 K, 212.66 kPa, Gas): 3.5454 ± 0.011 kg/m3
mass density (225.42 K, 1086.8 kPa, Liquid): 488.834 ± 0.11 kg/m3
mass density (225.42 K, 2133.2 kPa, Liquid): 490.717 ± 0.11 kg/m3
mass density (225.43 K, 709.57 kPa, Liquid): 488.151 ± 0.11 kg/m3
mass density (225.44 K, 403.34 kPa, Gas): 6.9981 ± 0.012 kg/m3
mass density (225.47 K, 499.44 kPa, Gas): 8.8558 ± 0.013 kg/m3
mass density (230.34 K, 306.85 kPa, Gas): 5.0853 ± 0.011 kg/m3
mass density (230.34 K, 1666.7 kPa, Liquid): 482.366 ± 0.11 kg/m3
mass density (230.34 K, 2111.2 kPa, Liquid): 483.236 ± 0.11 kg/m3
mass density (230.35 K, 197.35 kPa, Gas): 3.2054 ± 0.011 kg/m3
mass density (230.35 K, 391.01 kPa, Gas): 6.5852 ± 0.012 kg/m3
mass density (230.35 K, 493.22 kPa, Gas): 8.4852 ± 0.012 kg/m3
mass density (230.35 K, 2447.9 kPa, Liquid): 483.853 ± 0.11 kg/m3
mass density (230.36 K, 615.49 kPa, Gas): 10.8842 ± 0.012 kg/m3
mass density (230.36 K, 1671.6 kPa, Liquid): 482.356 ± 0.11 kg/m3
mass density (230.37 K, 1281 kPa, Liquid): 481.577 ± 0.11 kg/m3
mass density (230.38 K, 886.51 kPa, Liquid): 480.769 ± 0.11 kg/m3
mass density (235 K, 391.54 kPa, Gas): 6.4356 ± 0.011 kg/m3
mass density (235.01 K, 305.16 kPa, Gas): 4.9382 ± 0.011 kg/m3
mass density (235.01 K, 499.46 kPa, Gas): 8.3818 ± 0.012 kg/m3
mass density (235.01 K, 592.34 kPa, Gas): 10.1286 ± 0.013 kg/m3
mass density (235.02 K, 197.5 kPa, Gas): 3.137 ± 0.011 kg/m3
mass density (235.03 K, 694.56 kPa, Gas): 12.1431 ± 0.013 kg/m3
mass density (239.99 K, 717.05 kPa, Gas): 12.2167 ± 0.013 kg/m3
mass density (240.01 K, 954.18 kPa, Gas): 17.1448 ± 0.014 kg/m3
mass density (240.04 K, 105.82 kPa, Gas): 1.619 ± 0.01 kg/m3
mass density (240.04 K, 323.6 kPa, Gas): 5.1239 ± 0.011 kg/m3
mass density (240.04 K, 502.79 kPa, Gas): 8.2138 ± 0.012 kg/m3
mass density (240.04 K, 1755.7 kPa, Liquid): 466.891 ± 0.11 kg/m3
mass density (240.05 K, 2196.3 kPa, Liquid): 467.899 ± 0.11 kg/m3
mass density (240.06 K, 1092.2 kPa, Liquid): 465.243 ± 0.11 kg/m3
mass density (240.06 K, 1457.2 kPa, Liquid): 466.142 ± 0.11 kg/m3
mass density (240.08 K, 2591.9 kPa, Liquid): 468.767 ± 0.11 kg/m3
mass density (240.09 K, 2936.2 kPa, Liquid): 469.524 ± 0.11 kg/m3
mass density (244.91 K, 880.77 kPa, Gas): 15.0548 ± 0.013 kg/m3
mass density (244.91 K, 1111.6 kPa, Gas): 20.0182 ± 0.014 kg/m3
mass density (244.92 K, 628.26 kPa, Gas): 10.2258 ± 0.012 kg/m3
mass density (244.92 K, 877.28 kPa, Gas): 14.9812 ± 0.013 kg/m3
mass density (244.92 K, 1123.2 kPa, Liquid): 456.739 ± 0.11 kg/m3
mass density (244.92 K, 1225 kPa, Liquid): 457.081 ± 0.11 kg/m3
mass density (244.92 K, 1442.7 kPa, Liquid): 457.624 ± 0.11 kg/m3
mass density (244.93 K, 138.73 kPa, Gas): 2.0893 ± 0.01 kg/m3
mass density (244.93 K, 350.79 kPa, Gas): 5.4481 ± 0.011 kg/m3
mass density (244.93 K, 350.8 kPa, Gas): 5.4496 ± 0.011 kg/m3
mass density (244.93 K, 904.97 kPa, Gas): 15.5558 ± 0.013 kg/m3
mass density (244.93 K, 1659 kPa, Liquid): 458.187 ± 0.11 kg/m3
mass density (244.93 K, 1659.6 kPa, Liquid): 458.185 ± 0.11 kg/m3
mass density (244.95 K, 1111.4 kPa, Gas): 20.0202 ± 0.014 kg/m3
mass density (249.79 K, 863.82 kPa, Gas): 14.2661 ± 0.013 kg/m3
mass density (249.8 K, 863.8 kPa, Gas): 14.2677 ± 0.013 kg/m3
mass density (249.8 K, 1281.6 kPa, Gas): 23.1579 ± 0.017 kg/m3
mass density (249.81 K, 360.58 kPa, Gas): 5.4802 ± 0.011 kg/m3
mass density (249.81 K, 633.6 kPa, Gas): 10.0488 ± 0.012 kg/m3
mass density (249.81 K, 1067.5 kPa, Gas): 18.3574 ± 0.015 kg/m3 and 18.3577 ± 0.015 kg/m3
mass density (249.81 K, 1281.3 kPa, Gas): 23.1411 ± 0.017 kg/m3
mass density (249.82 K, 147.6 kPa, Gas): 2.1773 ± 0.0099 kg/m3
mass density (249.84 K, 2352.9 kPa, Liquid): 451.272 ± 0.1 kg/m3
mass density (249.85 K, 2081.5 kPa, Liquid): 450.462 ± 0.1 kg/m3
mass density (249.86 K, 2510.3 kPa, Liquid): 451.694 ± 0.1 kg/m3
mass density (249.86 K, 2510.4 kPa, Liquid): 451.694 ± 0.1 kg/m3
mass density (249.87 K, 2510.9 kPa, Liquid): 451.681 ± 0.1 kg/m3
mass density (249.9 K, 1805.5 kPa, Liquid): 449.546 ± 0.1 kg/m3
mass density (249.93 K, 1301 kPa, Liquid): 447.948 ± 0.1 kg/m3
mass density (249.93 K, 1354.2 kPa, Liquid): 448.104 ± 0.1 kg/m3
mass density (249.93 K, 1591.6 kPa, Liquid): 448.847 ± 0.1 kg/m3
mass density (254.69 K, 1692.1 kPa, Liquid): 439.901 ± 0.1 kg/m3
mass density (254.69 K, 2265.9 kPa, Liquid): 441.863 ± 0.1 kg/m3
mass density (254.7 K, 2492.4 kPa, Liquid): 442.576 ± 0.1 kg/m3
mass density (254.7 K, 2493.3 kPa, Liquid): 442.588 ± 0.1 kg/m3
mass density (254.72 K, 114.93 kPa, Gas): 1.6547 ± 0.0096 kg/m3
mass density (254.72 K, 2013.5 kPa, Liquid): 440.937 ± 0.1 kg/m3
mass density (254.73 K, 225.89 kPa, Gas): 3.2988 ± 0.0098 kg/m3
mass density (254.74 K, 1474.7 kPa, Gas): 26.843 ± 0.016 kg/m3
mass density (254.75 K, 3109.9 kPa, Liquid): 444.464 ± 0.1 kg/m3
mass density (254.76 K, 634.94 kPa, Gas): 9.817 ± 0.011 kg/m3
mass density (254.76 K, 825.19 kPa, Gas): 13.1528 ± 0.012 kg/m3
mass density (254.76 K, 1040.1 kPa, Gas): 17.2189 ± 0.013 kg/m3
mass density (254.76 K, 1280.4 kPa, Gas): 22.2529 ± 0.015 kg/m3
mass density (254.76 K, 1280.5 kPa, Gas): 22.2533 ± 0.015 kg/m3
mass density (254.76 K, 2860.9 kPa, Liquid): 443.666 ± 0.1 kg/m3
mass density (254.77 K, 423.98 kPa, Gas): 6.354 ± 0.01 kg/m3
mass density (254.78 K, 3457.8 kPa, Liquid): 445.504 ± 0.1 kg/m3
mass density (254.81 K, 2648.7 kPa, Liquid): 442.883 ± 0.1 kg/m3
mass density (259.62 K, 933.39 kPa, Gas): 14.7341 ± 0.012 kg/m3
mass density (259.62 K, 1174.9 kPa, Gas): 19.3302 ± 0.013 kg/m3
mass density (259.62 K, 1700.9 kPa, Liquid): 429.637 ± 0.1 kg/m3
mass density (259.62 K, 2698.9 kPa, Liquid): 433.539 ± 0.1 kg/m3
mass density (259.63 K, 152.52 kPa, Gas): 2.1615 ± 0.0095 kg/m3
mass density (259.63 K, 358.5 kPa, Gas): 5.211 ± 0.01 kg/m3
mass density (259.63 K, 550.88 kPa, Gas): 8.2159 ± 0.011 kg/m3
mass density (259.63 K, 726.92 kPa, Gas): 11.1161 ± 0.011 kg/m3
mass density (259.63 K, 1351.5 kPa, Gas): 23.0156 ± 0.015 kg/m3
mass density (259.63 K, 1351.6 kPa, Gas): 23.0046 ± 0.015 kg/m3
mass density (259.63 K, 1548.6 kPa, Gas): 27.5129 ± 0.016 kg/m3
mass density (259.63 K, 2097.3 kPa, Liquid): 431.21 ± 0.1 kg/m3
mass density (259.63 K, 2412.9 kPa, Liquid): 432.441 ± 0.1 kg/m3
mass density (259.63 K, 3076.2 kPa, Liquid): 434.902 ± 0.1 kg/m3
mass density (265.02 K, 505.8 kPa, Gas): 7.3166 ± 0.01 kg/m3
mass density (265.06 K, 116.65 kPa, Gas): 1.6114 ± 0.0092 kg/m3
mass density (265.06 K, 279.98 kPa, Gas): 3.9405 ± 0.0095 kg/m3
mass density (265.06 K, 3532.6 kPa, Liquid): 425.483 ± 0.1 kg/m3
mass density (265.07 K, 1811.5 kPa, Gas): 32.6652 ± 0.017 kg/m3
mass density (265.07 K, 2278.6 kPa, Liquid): 419.942 ± 0.099 kg/m3
mass density (265.07 K, 2962.8 kPa, Liquid): 423.046 ± 0.099 kg/m3
mass density (265.08 K, 1404.5 kPa, Gas): 23.2391 ± 0.014 kg/m3
mass density (265.08 K, 1612.3 kPa, Gas): 27.8016 ± 0.016 kg/m3
mass density (265.08 K, 2073 kPa, Liquid): 418.96 ± 0.099 kg/m3
mass density (265.08 K, 2322.7 kPa, Liquid): 420.14 ± 0.099 kg/m3
mass density (265.08 K, 2963.1 kPa, Liquid): 423.044 ± 0.099 kg/m3
mass density (265.08 K, 3081.3 kPa, Liquid): 423.536 ± 0.099 kg/m3
mass density (265.08 K, 3090.5 kPa, Liquid): 423.579 ± 0.099 kg/m3
mass density (265.09 K, 2565.3 kPa, Liquid): 421.145 ± 0.099 kg/m3
mass density (265.09 K, 3539.3 kPa, Liquid): 425.459 ± 0.1 kg/m3
mass density (265.1 K, 816.83 kPa, Gas): 12.3046 ± 0.011 kg/m3
mass density (265.1 K, 1004.4 kPa, Gas): 15.548 ± 0.012 kg/m3
mass density (265.1 K, 1199.4 kPa, Gas): 19.1462 ± 0.013 kg/m3
mass density (265.1 K, 2730.8 kPa, Liquid): 421.962 ± 0.099 kg/m3
